Measured values taken from patent US12336980B2, “Dosing regimen for a selective S1P1 receptor agonist” (Vanda Pharmaceuticals Inc., priority 2014, dated 2025).

Test system: healthy subjects
Experiment: 12-lead ECG, heart rate, PR interval and ECG abnormalities, cross-over up-titration study
Assay type: in vivo, human
Details: for mean maximum change from baseline in HR (12-lead ECG): Day 2, 2 h post-dose; for mean maximum change from baseline in HR (12-lead ECG) / decrease in HR vs. baseline (12-lead ECG): mean±SD; for decrease in HR vs. baseline (12-lead ECG): Day 3, 2 h after administration; for time for HR to return to baseline values post-dose (12-lead ECG): Day 2; for occurrence of HR <45 bpm, events / occurrence of HR <45 bpm, subjects: any time during the regimen, 12-lead ECG; for occurrence of PR interval >210 ms, events / occurrence of PR interval >210 ms, subjects: during the course of the study; for occurrence of HR <45 bpm, HR decrease >20 bpm, PR interval ≥200 ms or PR increase >20 ms, events / occurrence of HR <45 bpm, HR decrease >20 bpm, PR interval ≥200 ms or PR increase >20 ms, subjects / percentage of subjects with at least one event (HR <45 bpm, HR decrease >20 bpm, PR ≥200 ms, PR increase >20 ms): first 12 hours on Day 2
Protocol: In a single-center, double-blind, placebo-controlled, randomized, two-way cross-over study, 32 healthy subjects (15 males) received placebo on Day 1 followed by multiple-dose administration of either ponesimod or placebo (ratio 3:1). Ponesimod was administered alternately using regimen A (incremental dose increase from 2 to 20 mg) or B (10 mg for 7 days followed by a single-dose administration of 20 mg). Cardiodynamic (Holter and 12-lead ECG), pharmacokinetic, pharmacodynamic (total lymphocyte count), and safety variables were assessed.
The enrolled subjects came to the study center for each treatment period on Day −2 and participated in a run-in (all study procedures performed without study drug administration) on Day −1. On Day 1, subjects were randomized to one of the two possible sequences of the two up-titration regimens A and B (ratio 1:1). On Day 1, all subjects received placebo; the first study drug administration (or its matching placebo) occurred on Day 2. Regimen A consisted of the novel up-titration regimen: ponesimod was administered once daily (o.d.) orally at a dose of 2 mg on Day 2 and Day 3, 3 mg on Day 4 and Day 5, 4 mg on Day 6 and Day 7, 5 mg on Day 8, 6 mg on Day 9, 7 mg on Day 10, 8 mg on Day 11, 9 mg on Day 12, 10 mg on Day 13 and Day 14, and 20 mg on Day 15. The reference regimen (regimen B) was based on previous studies (Olsson T. et al., Oral ponesimod in relapsing-remitting multiple sclerosis: a randomised phase II trial. J Neurol Neurosurg Psychiatry. 2014; 85 (11): 1198-1208; and Vaclavkova A. et al., Oral ponesimod in patients with chronic plaque psoriasis: a randomised, double-blind, placebo-controlled phase 2 trial. Lancet. 2014; 384 (9959): 2036-2045) and consisted of an o.d. oral administration of ponesimod at a dose of 10 mg for 7 days (i.e., from Day 2 to Day 8) and 20 mg on Day 9. From Day 10 to Day 15 subjects received o.d. the matching placebo. In the placebo group (1:1 sex ratio), subjects received placebo from Day 1 to Day 15. All treatments were administered at the same time in the morning (fasted condition) with approximately 240 mL of water.
Cardiodynamic endpoints were assessed using Holter and 12-lead ECG. The 24-h Holter recordings were performed on Day -1, Day 1, Day 2, Day 9, Day 13, and Day 15. The 12-h Holter recordings were performed on the other days. In addition, Holter data were used to estimate the area under the effect curve (AUEC) for HR. 12-lead ECGs were performed from Day −1 to Day 16 at pre-dose and 1, 2, 3, 4, 5, 6, 8, 10, and 12 h after study drug administration. An additional 12-lead ECG recording was performed at EOFP and EOS. Heart rate nadir, Emax (maximum decrease of mean hourly HR from baseline, which was defined as the mean of the time-matched assessments measured on Day −1 and Day 1 pre-dose), and occurrence of values of interest (HR <45 bpm, HR decrease from baseline >20 bpm, and PR interval increase from baseline >20 ms), and AV-blocks (i.e., […]) were obtained with 12-lead ECG.
Cardiodynamic and pharmacodynamic data are expressed as mean±SD. Repeated measure one-way ANOVAs followed by Tukey's multiple-comparisons tests were used to perform inter-group (i.e., placebo vs. regimen A vs. regimen B) comparisons. Student's t-tests were employed to perform intra-group (baseline vs. treatment) comparisons. Differences were considered to be statistically significant at p <0.05. SAS® version 9.2 (SAS Institute, Cary, NC, USA) was used for the statistical analysis and descriptive statistics of clinical data.

[1] = Regimen A (N = 24), Day 2 to EOFP or EOS visit
[2] = Regimen B (N = 24), Day 2 to EOFP or EOS visit

CCC/N=C1\S/C(=C\c2ccc(OC[C@H](O)CO)c(Cl)c2)C(=O)N1c1ccccc1C [ponesimod, (R)-5-[3-chloro-4-(2,3-dihydroxy-propoxy)-benz[Z]ylidene]-2-([Z]-propylimino)-3-o-tolyl-thiazolidin-4-one]
mean maximum change from baseline in HR (12-lead ECG) (2 mg (regimen A)): −9±5.3 bpm | decrease in HR vs. baseline (12-lead ECG) (2 mg second dose): −9±5.2 bpm | mean maximum change from baseline in HR (12-lead ECG) (10 mg (regimen B)): −13±6.2 bpm | decrease in HR vs. baseline (12-lead ECG) (10 mg second dose): −10±5.1 bpm | pre-dose HR values (range) (Day 4 to last day of administration, ponesimod-treated subjects): 56-60 bpm | Atrial rhythm, number of events [1]: 19 | Atrial rhythm, number of subjects [1]: 4 | Atrial rhythm, percentage of subjects [1]: 16.7 percentage | Sinus bradycardia, number of events [1]: 3 | Sinus bradycardia, number of subjects [1]: 3 | Sinus bradycardia, percentage of subjects [1]: 12.5 percentage | Supraventricular extrasystoles, number of events [1]: 15 | Supraventricular extrasystoles, number of subjects [1]: 3 | Supraventricular extrasystoles, percentage of subjects [1]: 12.5 percentage | Ventricular extrasystoles, number of events [1]: 1 | Ventricular extrasystoles, number of subjects [1]: 1 | Ventricular extrasystoles, percentage of subjects [1]: 4.2 percentage | AV-block 1st degree, number of events [2]: 130 | AV-block 1st degree, number of subjects [2]: 6 | AV-block 1st degree, percentage of subjects [2]: 25.0 percentage | AV-block 2nd degree Mobitz I, number of events [2]: 1 | AV-block 2nd degree Mobitz I, number of subjects [2]: 1 | AV-block 2nd degree Mobitz I, percentage of subjects [2]: 4.2 percentage | Atrial fibrillation, number of subjects [2]: 1 | Atrial fibrillation, percentage of subjects [2]: 4.2 percentage | Atrial rhythm, number of events [2]: 12 | Atrial rhythm, number of subjects [2]: 2 | Atrial rhythm, percentage of subjects [2]: 8.3 percentage | QT prolonged, number of events [2]: 142 | QT prolonged, number of subjects [2]: 6 | QT prolonged, percentage of subjects [2]: 25.0 percentage | Short PQ, number of events [2]: 147 | Short PQ, number of subjects [2]: 6 | Short PQ, percentage of subjects [2]: 25.0 percentage | Sinus arrhythmia, number of events [2]: 98 | Sinus arrhythmia, number of subjects [2]: 12 | Sinus arrhythmia, percentage of subjects [2]: 50.0 percentage | Sinus bradycardia, number of events [2]: 33 | Sinus bradycardia, number of subjects [2]: 3 | Sinus bradycardia, percentage of subjects [2]: 12.5 percentage | Supraventricular extrasystoles, number of events [2]: 29 | Supraventricular extrasystoles, number of subjects [2]: 7 | Supraventricular extrasystoles, percentage of subjects [2]: 29.2 percentage | Ventricular extrasystoles, number of events [2]: 3 | Ventricular extrasystoles, number of subjects [2]: 3 | Ventricular extrasystoles, percentage of subjects [2]: 12.5 percentage | Atrial fibrillation, number of events (Regimen B (N = 24), Day 2 to EOFP or EOS visit, *Serious adverse event): 1 | time for HR to return to baseline values post-dose (12-lead ECG) (regimen A): ≤ 3 h | occurrence of HR <45 bpm, events (regimen A): 20 events | occurrence of HR <45 bpm, subjects (regimen A): 3 subjects | occurrence of PR interval >210 ms, events (regimen A): 79 events | occurrence of PR interval >210 ms, subjects (regimen A): 6 subjects | occurrence of HR <45 bpm, HR decrease >20 bpm, PR interval ≥200 ms or PR increase >20 ms, events (regimen A): 14 events | occurrence of HR <45 bpm, HR decrease >20 bpm, PR interval ≥200 ms or PR increase >20 ms, subjects (regimen A): 6 subjects | percentage of subjects with at least one event (HR <45 bpm, HR decrease >20 bpm, PR ≥200 ms, PR increase >20 ms) (regimen A): 25% | time for HR to return to baseline values post-dose (12-lead ECG) (regimen B): ≤ 4 h | occurrence of HR <45 bpm, events (regimen B): 58 events | occurrence of HR <45 bpm, subjects (regimen B): 4 subjects | occurrence of PR interval >210 ms, events (regimen B): 143 events | occurrence of PR interval >210 ms, subjects (regimen B): 8 subjects | occurrence of HR <45 bpm, HR decrease >20 bpm, PR interval ≥200 ms or PR increase >20 ms, events (regimen B): 43 events | occurrence of HR <45 bpm, HR decrease >20 bpm, PR interval ≥200 ms or PR increase >20 ms, subjects (regimen B): 12 subjects | percentage of subjects with at least one event (HR <45 bpm, HR decrease >20 bpm, PR ≥200 ms, PR increase >20 ms) (regimen B): 50%
